From patent US6534039B2, “Extended organic cobalt and nickel magnetic complexes” (priority 2000, dated 2003)

Tests used:
[1] = test system: brain tumor (N32 and F98); assay: MRI of brain tumors in rats with contrast agent; format: in vivo, rat
Description: Rats were implanted with tumors by stereotactic infusion of tumor cells into the brain.
Various MRI imaging modes were used in the analysis: T1-weighted, T2-weighted, and T2*-weighted.
Rats weighing about 350 g, seeded with either F98 or N32 cells were used for tumor imaging. A<0.5 mm burr hole was drilled through the skull of the anesthetized rats at the point of inoculation. Tumors were initiated by inoculating one microliter of culture medium, containing 10,000 cultured cells, 4-5 mm deep into the left striatum, at a point 4 mm to the left of the midline in the (serrated) coronal suture. A 27-gauge needle fitted with a depth-limiting plastic collar to ensure cell injection 4-5 mm beneath the skull was connected to a Hamilton microsyringe via flexible tubing. Following a 30-second infusion of the cells, another 30 seconds was taken to allow the cells to settle before removing the needle. For F98 tumor animals, death ensued 24+ days after inoculation.
MRI was performed at day 16 after tumor cell implantation. […] The rats were immediately positioned on a support and MRI was performed in a 1.5 tesla whole-body clinical scanner (Siemens Vision, Germany) with a human extremity (knee) coil. High-resolution turbo spin-echo sagittal imaging was used for selecting slice position with imaging parameters as follows. […]

[2] = rat, in vivo, ip
regions of wound healing = assay: Wound healing delineation by MRI; format: in vivo, rat; conditions: site opened two weeks prior for injecting tumor cells
Description: MRI was performed at day 16 after tumor cell implantation. The animals were anesthetized and injected interperitoneally with either 200 microliters of gadodiamide (287 mg gadodiamide/ml) (Omniscan, Nycomed, Princeton, N.J.) or 200 microliters of the extended cobalt complex (containing 10 mg Co/ml ±30%). The rats were immediately positioned on a support and MRI was performed in a 1.5 tesla whole-body clinical scanner (Siemens Vision, Germany) with a human extremity (knee) coil. High-resolution turbo spin-echo sagittal imaging was used for selecting slice position with imaging parameters as follows. For T2 weighted images: repetition time (TR)=3000 msec; echo time (TE)=25 msec; field of view (FOV)=100×100 mm; matrix size=256×256; image slice thickness (TH)=2 mm. Tumor images were collected at various times after a single interperitoneal injection. Imaging times were 3 min/scan and resolution was […]. Imaging covered a 30 min period after injection.
This is surprising as the vasculature and components of a wounded region differ from normal tissue only subtly, and these differences are not highlighted by the gadodiamide reagent. This type of imaging can be used to detect internal damage, internal bleeding, or other forms of lesions with MRI using the cobalt complex as contrast agent.
Methods were performed as in Example 8.

ALBm (albumen) [2]: 1.5 g/dL
ALP (alkaline phosphatase) [2]: 202 IU/L
BUNm (blood urea nitrogen) [2]: 16 mg/dL
CK (creatine kinase) [2]: 820 IU/L
CL (chloride) [2]: 101 mEq/L
CO2 (carbon dioxide) [2]: 30 mEq/L
GLUCm (glucose) [2]: 177 mg/dL
K (potassium) [2]: 5.5 mEq/L
NA (sodium) [2]: 139 mEq/L
liver enzyme activity compared to the control [2]: slight increase
Compound: CNC(=O)CN(CCN(CCN(CC(=O)[O-])CC(=O)NC)CC(=O)[O-])CC(=O)[O-].[Gd+3] [gadodiamide]
tumor visibility in all MRI imaging modes ([1]; T1-weighted, T2-weighted and T2*-weighted): no trace of any tumors was evident
enhancement / imaging of brain tumor by MRI ([1]; rats with N32 or F98 tumor, 200 microliters interperitoneally, 1.5 tesla): No enhancement
ALT (alanine transaminase) [2]: 62 IU/L
AST (aspartate transaminase) [2]: 183 IU/L
image contrast at wound site by MRI (regions of wound healing): No such contrast was evident
